Measurements from patent publication US20240084002A1, “METHODS AND COMPOSITIONS UTILIZING IDO1-DEPENDENT VASCULARIZING CELLS FOR THE TREATMENT OF PATHOLOGICAL CONDITIONS INVOLVING NEOVASCULARIZATION” (LANKENAU INSTITUTE FOR MEDICAL RESEARCH, priority 2020, published 2024).
Like-named read-outs stand apart in the source and are kept apart here.

What was measured:
IL6 gene expression [1] = details: U937 and HL60 cells, previously shown, reference (9); cited from earlier work
IDO1 [2] = target: T1, IDO1 (Homo sapiens, UniProt P14902); details: U937 and HL60 cells, previously shown, reference (9); cited from earlier work
T1 construct: cell culture media was analyzed for levels of kynurenine to assess IDO1 enzymatic activity; endogenous in cells; host or cells: U937 (ATCC CRL-1593.2) and HL60 (ATCC CCL-240), stimulated with IFNγ + LPS
T1 sequence (P14902 whole entry): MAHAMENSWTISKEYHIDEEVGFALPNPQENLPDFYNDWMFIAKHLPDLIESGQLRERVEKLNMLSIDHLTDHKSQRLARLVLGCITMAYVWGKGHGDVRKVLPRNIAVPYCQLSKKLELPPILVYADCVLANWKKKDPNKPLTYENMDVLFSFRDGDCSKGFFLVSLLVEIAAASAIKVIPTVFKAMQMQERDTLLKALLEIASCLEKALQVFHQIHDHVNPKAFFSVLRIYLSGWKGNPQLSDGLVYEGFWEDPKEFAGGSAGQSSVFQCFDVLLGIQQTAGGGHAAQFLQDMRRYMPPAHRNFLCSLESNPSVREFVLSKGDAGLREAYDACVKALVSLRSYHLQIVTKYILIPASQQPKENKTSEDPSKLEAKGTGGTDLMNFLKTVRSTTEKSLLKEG

U937 and HL60 cells [3] = assay: Viability assay (LDI Cell CountEZ TPS assay kit); details: IFNγ+LPS, at the concentrations used (1 μM), 24 hrs
Protocol: (§2) Viability assay. Cell viability in U937 and HL60 cells was measured by LDI Cell CountEZ™ toxicity, proliferation and survival (TPS) assay kit (LDI1201™) as per the manufacturer's protocol. Both cell lines were plated at a density of 10,000 cells/ well of a 96 well plate in 100 μl DMEM medium with 10% FBS. […] Bortezomib (20 nM; LC Laboratories, Cat# B-1408) was used as positive control for inducing cellular apoptosis. Treated cells were incubated at 37° C. in a humidified CO2 incubator for 24 hrs. The TPS assay was then performed with cell viability assessed by reading absorbance at 412 nm in a microtiter plate reader.

IL6 gene expression [4] = assay: qPCR of IFNγ+LPS mediated induction of IL6 gene expression in U937 and HL60 cells; type: cell-based, human; details: inhibitor 1 μM, 24 hr
Description: (§1) Quantitative real time PCR analysis.

IDO1 [5] = target: T1, IDO1; assay: Kynurenine levels in supernatants of IFNγ+LPS treated U937 and HL60 cells (IDO1 activity); type: cell-based; details: inhibitor 1 μM, 24 hr
Protocol: Kynurenine assay. Levels of kynurenine in U937 and HL60 cell supernatants were measured using Ehrlich's reagent (p-dimethylamino-benzaldehyde). Following treatments, supernatants were collected and transferred to a V-bottom 96-well plate and mixed with 40 μL 50% (w/v) trichloroacetic acid (TCA; LabChem) to precipitate any protein. The plate was then incubated at 65° C. for 30 minutes followed by centrifugation at 1250×g for 10 minutes. Following centrifugation, 100 μL of clarified supernatant was transferred to a new flat-bottomed 96-well plate and mixed at equal volumes with 2% (w/v) Ehrlich's reagent in acetic acid. The resulting reaction was measured at 490 nm using a Synergy HT microtiter plate reader (Bio-Tek). Vitreous humor was collected from eyes of mice that underwent the OIR process. Levels of kynurenine were measured using the IDK® Kynurenin ELISA kit (Immundiagnostik AG, Bensheim, Germany) according to manufacturer's protocol. Additionally, levels of kynurenine were confirmed by high-performance liquid chromatography (HPLC) coupled to electrospray ionization liquid chromatography/ tandem mass spectroscopy (LC/MS-MS) as described (18).

ATF4 = assay: qPCR of IFNγ+LPS mediated induction of ATF4 in U937 and HL60 cells (ISR activation); type: cell-based, human; details: inhibitor 1 μM, 24 hr
Description: as §1

CHOP = assay: qPCR of IFNγ+LPS mediated induction of CHOP in U937 and HL60 cells (ISR activation); type: cell-based, human; details: inhibitor 1 μM, 24 hr
Description: as §1

4T1 metastases = details: prior finding, reference (7); cited from earlier work
NOS2 = NOS2 staining of 4T1 lung metastases; type: in vivo, mouse; details: WT mice with 4T1 lung metastases, 50 mg/kg p.o. b.i.d. over 3 days
Gr-1+ CD11b^lo cells = assay: Matrigel plug assay, neovascular density; type: in vivo, mouse; details: plugs with WT Gr-1+ CD11b^lo cells in WT mice, 50 mg/kg oral gavage b.i.d. for the final 3 days, plugs resected at day 9
Protocol: Matrigel Plug Assay. To assess the in vivo neovascularizing capability of select immune cell populations isolated from 4T1 pulmonary metastases, 5×10^4-2×10^6 sorted cells were isolated (as indicated in the corresponding figure legends) by fluorescence-activated cell sorting (BD FACSAria III) into RPMI+10% FCS and put on ice. Immediately following sorting, isolated immune cell populations were suspended in 250 μl PBS and combined with 250 μl Matrigel (Corning® Cat# 356237) per plug on ice for in vivo injections. Plugs were established by subcutaneous injection in the dorsal region of recipient mice using an ice-cold syringe with a 21 gauge needle. […] After 9 days post injection, the matrigel plug was harvested and images recorded with either a Samsung Galaxy S6 or an iPhone X using the 2× lens with an additional 10× macro lens attachment (Moment).
For blood vessel quantification, the Matrigel plugs were blocked in OCT and cryosectioned using the tape transfer method ([…] per plug). Following sectioning, neovascularization was visualized under confocal microscope by fluorescence staining with rabbit anti-mouse for caveolin 1 and quantitatively analyzed using Adobe Photoshop as described above. Statistical Analysis. […] Significance for Kaplan-Meier survival curves was determined by 2-group log-rank test. […]

U937 and HL60 cells [6] = details: human, 24 h, 1 μM
Protocol: as §2

CYP1A1 = assay: qPCR of IFNγ+LPS mediated induction of CYP1A1 in U937 and HL60 cells (AHR activation); details: inhibitor 1 μM, 24 hr
Protocol: Cell culture. The 4T1 (mouse mammary carcinoma; ATCC Cat# CRL-2539) and U937 (human histiocytic lymphoma; ATCC Cat# CRL-1593.2) cell lines were cultured in DMEM supplemented with penicillin, streptomycin, 10% FBS and 55 μM β-mercaptaethanol. The HL60 (human promyelocytic leukemia; ATCC Cat# CCL-240) cell line was maintained in IMDM media supplemented with 10% FCS plus 55 μM β-mercaptaethanol, 2 mM glutamax (Life Technologies), and 50 μg/ml gentamicin. […] No mycoplasma testing was done on the U937 or HL60 cell lines. […] In vitro experiments were performed with U937 and HL60 cells maintained no longer than passage 6. […] At 24 hr mRNA was prepared from the treated cells for qPCR-based analysis of gene expression and cell culture media was analyzed for levels of kynurenine to assess IDO1 enzymatic activity.
Quantitative real time PCR analysis. […] Quantitative PCR (QPCR) reactions were run using the Fast Start Universal SYBR Green Mix (Roche Applied Science) with an Eppendorf Realplex 4 Mastercycler QPCR machine. Levels of mRNA expression detected with primers specific for Atf4, Chop Il6 and Cyp1a1 (Tables 1-3) were normalized to 18S mRNA levels and differences between treatment groups were analyzed using the δ-δ cycle threshold method.

Compound | impact on cell viability (U937 and HL60 cells [3]) | effect on IL6 gene expression (IL6 gene expression [4]) | effect on the level of kynurenine produced (IDO1 [5]) | effect on induction of ATF4 message (ATF4) | effect on induction of CHOP message (CHOP) | other results
methylthiohydantoin-DL-tryptophan [MTH-Trp] |  |  |  |  |  | corresponding increase in IL6 (IL6 gene expression [1]): could be blocked; IFNγ+LPS-mediated induction of IDO1 activity (IDO1 [2]): could be blocked
O=C(COc1ccc(Cl)cc1)NC1CCC(NC(=O)COc2ccc(Cl)cc2)CC1 (stereo not drawn) [ISRIB] | Neither ISRIB, Epacadostat nor BAY-218 had a sufficient impact on cell viability | effectively blocked | neither had a significant effect | blocked induction | blocked induction | 
NS(=O)(=O)NCCNc1nonc1C(=NO)Nc1ccc(F)c(Br)c1 [Epacadostat] |  |  |  | effectively blocked | effectively blocked | reduction IL6 gene expression (IL6 gene expression [4]): ≥ 99%; blood vessel formation within established 4T1 metastases (4T1 metastases): reverses blood vessel formation; NOS2 expression within lung metastases (NOS2): elicits NOS2 elevation; degree of neovascularization in Matrigel plugs (Gr-1+ CD11b^lo cells): decreased the degree of neovascularization promoted by CD11b^lo cells to a level quantifiably indistinguishable from CD11b^hi cells; impact on cell viability (U937 and HL60 cells [6]): Neither ISRIB, Epacadostat nor BAY-218 had a sufficient impact on cell viability
C[C@@H](CO)NC(=O)c1cc(-c2ccc(Cl)cc2)nn(-c2cccc(F)c2)c1=O [BAY-218] | Neither ISRIB, Epacadostat nor BAY-218 had a sufficient impact on cell viability | no significant effect | neither had a significant effect |  |  | effect on induction of CYP1A1 message (CYP1A1): blocked induction of CYP1A1
